ChEMBL document CHEMBL1201862, “PubChem BioAssay data set” (2004)
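96-well plates; 48 h exposure; 5 concentrations. Endpoints by linear interpolation between flanking doses. Not reached: highest tested concentration assigned. GI50: concentration for 50% inhibition of growth.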 Activity calls are given as the source filed them. No stated cut-off is given here; in the data, active = GI50 up to about 1.1 µM and inactive = higher.

Legend:
Assay in all cases: NCI-60 cell line screen, 48 h
[1] = system: UO-31
[2] = system: NCI-H226
[3] = system: SK-MEL-5
[4] = system: SW-620
[5] = system: MDA-MB-435
[6] = system: UACC-62
[7] = system: SF-539
[8] = system: RXF 393
[9] = system: PC-3
[10] = system: TK-10
[11] = system: OVCAR-3
[12] = system: A549
[13] = system: HCT-116
[14] = system: RPMI-8226
[15] = system: CCRF-CEM
[16] = system: SR
[17] = system: NCI-H460
[18] = system: U-251
[19] = system: SF-295
[20] = system: Hs-578T
[21] = system: NCI/ADR-RES
[22] = system: SNB-19
[23] = system: MDA-N
[24] = system: OVCAR-5
[25] = system: T47D
[26] = system: M14
[27] = system: 786-0
[28] = system: EKVX
[29] = system: Malme-3M
[30] = system: HCC 2998
[31] = system: UACC-257
[32] = system: OVCAR-4
[33] = system: A498
[34] = system: ACHN
[35] = system: DU-145
[36] = system: COLO 205
[37] = system: BT-549
[38] = system: MDA-MB-231
[39] = system: SNB-75
[40] = system: SK-OV-3
[41] = system: HOP-62
[42] = system: SK-MEL-28
[43] = system: HT-29
[44] = system: MOLT-4
[45] = system: KM12
[46] = system: CAKI-1
[47] = system: SF-268
[48] = system: NCI-H23
[49] = system: NCI-H522
[50] = system: HOP-92
[51] = system: SN12C
[52] = system: LOX IMVI
[53] = system: MCF7
[54] = system: K562
[55] = system: HCT-15
[56] = system: OVCAR-8

With `CCOC(=O)c1c(N2CCCC2)[nH]c(=O)c(C(c2ccc(N(C)C)cc2)c2c(O)c(C(=O)OCC)c(N3CCCC3)[nH]c2=O)c1O` the GI50 [1] was > 100 µM (inactive), the GI50 [2] was > 100 µM (inactive) and the GI50 [3] was > 100 µM (inactive). The GI50 [4] was > 100 µM (inactive), the GI50 [5] was > 100 µM (inactive) and the GI50 [6] was > 100 µM (inactive). For the same molecule, the GI50 [7] was > 100 µM (inactive), the GI50 [8] was > 100 µM (inactive) and the GI50 [9] was > 100 µM (inactive). The GI50 [10] was 94.2 µM (inactive), the GI50 [11] was > 100 µM (inactive) and the GI50 [12] was > 100 µM (inactive). The GI50 [13] was > 100 µM (inactive), the GI50 [14] was > 100 µM (inactive) and the GI50 [15] was > 100 µM (inactive). For the same molecule, the GI50 [16] was > 100 µM (inactive), the GI50 [17] was > 100 µM (inactive) and the GI50 [18] was > 100 µM (inactive). For the same molecule, the GI50 [19] was > 100 µM (inactive), the GI50 [20] was > 100 µM (inactive) and the GI50 [21] was > 100 µM (inactive). For the same molecule, the GI50 [22] was > 100 µM (inactive), the GI50 [23] was > 100 µM (inactive) and the GI50 [24] was > 100 µM (inactive). The GI50 [25] was > 100 µM (inactive), the GI50 [26] was > 100 µM (inactive) and the GI50 [27] was > 100 µM (inactive). For the same molecule, the GI50 [28] was > 100 µM (inactive), the GI50 [29] was > 100 µM (inactive) and the GI50 [30] was > 100 µM (inactive). The GI50 [31] was > 100 µM (inactive), the GI50 [32] was > 100 µM (inactive) and the GI50 [33] was > 100 µM (inactive). For the same molecule, the GI50 [34] was > 100 µM (inactive), the GI50 [35] was > 100 µM (inactive) and the GI50 [36] was > 100 µM (inactive). For the same molecule, the GI50 [37] was 30.4 µM (inactive), the GI50 [38] was 82.2 µM (inactive) and the GI50 [39] was 48.5 µM (inactive). For the same molecule, the GI50 [40] was > 100 µM (inactive), the GI50 [41] was > 100 µM (inactive) and the GI50 [42] was > 100 µM (inactive). For the same molecule, the GI50 [43] was > 100 µM (inactive), the GI50 [44] was > 100 µM (inactive) and the GI50 [45] was > 100 µM (inactive). For the same molecule, the GI50 [46] was > 100 µM (inactive), the GI50 [47] was > 100 µM (inactive) and the GI50 [48] was 95.5 µM (inactive). The GI50 [49] was > 100 µM (inactive), the GI50 [50] was > 100 µM (inactive) and the GI50 [51] was > 100 µM (inactive). For the same molecule, the GI50 [52] was > 100 µM (inactive), the GI50 [53] was > 100 µM (inactive) and the GI50 [54] was > 100 µM (inactive). The GI50 [55] was over 100 µM and the GI50 [56] was > 100 µM (inactive).
